Where two headings read alike, the source gives them in different places.
Columns and labels:
[1] = test system: CNS; experiment: NCI SRB cytotoxicity, CNS cancer panel; assay type: cell-based, human; conditions: average of six to eight different cancer cell lines; for Log10 LC50: 50% lethality
Method: (§1) Biological Activity: The in vitro biological activity studies were carried out at the National Cancer Institute, Maryland, USA.
(§2) The C8-linked isoxazoline-PBD hybrids have been tested against sixty human tumour cell lines derived from nine cancer types (leukemia, non-small cell lung cancer, colon cancer, CNS cancer, melanoma, ovarian cancer, renal cancer, prostate cancer and breast cancer) as per NCI protocol. For each compound, dose response curves for individual cell lines have been measured at a minimum of five concentrations at 10 fold dilutions. A protocol of 48 hrs continuous drug exposure has been used, and a sulforhodamine B (SRB) protein assay was used to estimate cell viability or growth. The concentration for 50% cell growth inhibition (GI50), total cell growth inhibition (TGI, 0% growth) and 50% cell death (LC50, […]) compared with the control has been calculated (FIG. 2).
(§3) Compound 5b and 9b have been evaluated for in vitro cytotoxicity in sixty cell lines from nine human cancer types of lung (Hop-62, NCI-H226, NCI-H522), leukemia (K-562, SR), colon (HCT-116, HCT-15, HCC-2998), CNS(SF-539), melanoma (SK-MEL-5, UACC-62, M14), ovarian (IGROV1), renal (A498), prostate (PC3) breast (BT-549, MDA-MB-435, HS578T) origin. The results are expressed as percent of cell growth determined relative to that of untreated control cells (Table 1).

[2] = test system: NCI-H522; experiment: NCI SRB cytotoxicity, NCI-H522 (non-small cell lung); assay type: cell-based, human
Method: as §1, §2, §3

[3] = test system: MDA-MB-468; experiment: NCI SRB cytotoxicity, MDA-MB-468 (breast); assay type: cell-based, human; conditions: 48 hrs exposure
Method: as §1, §2, §3

[4] = test system: sixty human tumour cell lines; experiment: NCI in vitro cytotoxicity, sixty human tumour cell lines (SRB); assay type: cell-based; conditions: for Log10 GI50 mean graph midpoint (MG_MID) / Log10 TGI mean graph midpoint (MG_MID): human tumour cell lines; for Log10 TGI mean graph midpoint (MG_MID): total cell growth inhibition; for GI50: bound over all cell lines
Method: as §1, §2, §3

[5] = test system: SK-MEL-28; experiment: NCI SRB cytotoxicity, SK-MEL-28 (melanoma); assay type: cell-based, human; conditions: 48 hrs exposure
Method: as §1, §2, §3

[6] = test system: KM12; experiment: NCI SRB cytotoxicity, KM12 (colon); assay type: cell-based, human; conditions: 48 hrs exposure
Method: as §1, §2, §3

[7] = test system: UO-31; experiment: NCI SRB cytotoxicity, UO-31 (renal); assay type: cell-based, human; conditions: 48 hrs exposure
Method: as §1, §2, §3

[8] = test system: UACC-257; experiment: NCI SRB cytotoxicity, UACC-257 (melanoma); assay type: cell-based, human; conditions: 48 hrs exposure
Method: as §1, §2, §3

[9] = test system: K-562; experiment: NCI SRB cytotoxicity, K-562 (leukemia); assay type: cell-based, human
Method: as §1, §2, §3

[10] = test system: HCT-116; experiment: NCI SRB cytotoxicity, HCT-116 (colon); assay type: cell-based, human
Method: as §1, §2, §3

[11] = test system: HS 578T; experiment: NCI SRB cytotoxicity, HS 578T (breast); assay type: cell-based, human
Method: as §1, §2, §3

[12] = test system: SN12C; experiment: NCI SRB cytotoxicity, SN12C (renal); assay type: cell-based, human; conditions: 48 hrs exposure
Method: as §1, §2, §3

[13] = test system: OVCAR-8; experiment: NCI SRB cytotoxicity, OVCAR-8 (ovarian); assay type: cell-based, human; conditions: 48 hrs exposure
Method: as §1, §2, §3

[14] = test system: M14; experiment: NCI SRB cytotoxicity, M14 (melanoma); assay type: cell-based, human
Method: as §1, §2, §3

[15] = test system: SK-MEL-5; experiment: NCI SRB cytotoxicity, SK-MEL-5 (melanoma); assay type: cell-based, human
Method: as §1, §2, §3

[16] = test system: MDA-MB-435; experiment: NCI SRB cytotoxicity, MDA-MB-435 (breast); assay type: cell-based, human
Method: as §1, §2, §3

[17] = test system: NCI-H460; experiment: NCI SRB cytotoxicity, NCI-H460 (non-small cell lung); assay type: cell-based, human; conditions: NCI-H460, Non-smallcell lung; 48 hrs exposure
Method: as §1, §2, §3

[18] = test system: NCI-H226; experiment: NCI SRB cytotoxicity, NCI-H226 (non-small cell lung); assay type: cell-based, human
Method: as §1, §2, §3

[19] = test system: U251; experiment: NCI SRB cytotoxicity, U251 (CNS); assay type: cell-based, human; conditions: 48 hrs exposure
Method: as §1, §2, §3

[20] = test system: Renal; experiment: NCI SRB cytotoxicity, renal cancer panel; assay type: cell-based, human; conditions: average of six to eight different cancer cell lines; for Log10 LC50: 50% lethality
Method: as §1, §2, §3

[21] = test system: OVCAR-5; experiment: NCI SRB cytotoxicity, OVCAR-5 (ovarian); assay type: cell-based, human; conditions: 48 hrs exposure
Method: as §1, §2, §3

[22] = test system: IGROV1; experiment: NCI SRB cytotoxicity, IGROV1 (ovarian); assay type: cell-based, human
Method: as §1, §2, §3

[23] = test system: Melanoma; experiment: NCI SRB cytotoxicity, melanoma panel; assay type: cell-based, human; conditions: average of six to eight different cancer cell lines; for Log10 LC50: 50% lethality
Method: as §1, §2, §3

[24] = test system: NCI-H322M; experiment: NCI SRB cytotoxicity, NCI-H322M (non-small cell lung); assay type: cell-based, human; conditions: Non-smallcell lung, 48 hrs exposure
Method: as §1, §2, §3

[25] = test system: COLO 205; experiment: NCI SRB cytotoxicity, COLO 205 (colon); assay type: cell-based, human; conditions: 48 hrs exposure
Method: as §1, §2, §3

[26] = test system: EKVX; experiment: NCI SRB cytotoxicity, EKVX (non-small cell lung); assay type: cell-based, human; conditions: Non-smallcell lung, 48 hrs exposure
Method: as §1, §2, §3

[27] = test system: SF-268; experiment: NCI SRB cytotoxicity, SF-268 (CNS); assay type: cell-based, human; conditions: 48 hrs exposure
Method: as §1, §2, §3

[28] = test system: SR; experiment: NCI SRB cytotoxicity, SR (leukemia); assay type: cell-based, human
Method: as §1, §2, §3

[29] = test system: MOLT-4; experiment: NCI SRB cytotoxicity, MOLT-4 (leukemia); assay type: cell-based, human; conditions: 48 hrs exposure
Method: as §1, §2, §3

[30] = test system: RXF 393; experiment: NCI SRB cytotoxicity, RXF 393 (renal); assay type: cell-based, human; conditions: 48 hrs exposure
Method: as §1, §2, §3

[31] = test system: Breast; experiment: NCI SRB cytotoxicity, breast cancer panel; assay type: cell-based, human; conditions: average of six to eight different cancer cell lines; for Log10 LC50: 50% lethality
Method: as §1, §2, §3

[32] = test system: SK-MEL-2; experiment: NCI SRB cytotoxicity, SK-MEL-2 (melanoma); assay type: cell-based, human; conditions: 48 hrs exposure
Method: as §1, §2, §3

[33] = test system: MCF7; experiment: NCI SRB cytotoxicity, MCF7 (breast); assay type: cell-based, human; conditions: 48 hrs exposure
Method: as §1, §2, §3

[34] = test system: PC-3; experiment: NCI SRB cytotoxicity, PC-3 (prostate); assay type: cell-based, human
Method: as §1, §2, §3

[35] = test system: 786-0; experiment: NCI SRB cytotoxicity, 786-0 (renal); assay type: cell-based, human; conditions: 48 hrs exposure
Method: as §1, §2, §3

[36] = test system: A549/ATCC; experiment: NCI SRB cytotoxicity, A549/ATCC (non-small cell lung); assay type: cell-based, human; conditions: Non-smallcell lung, 48 hrs exposure
Method: as §1, §2, §3

[37] = NCI-H522, Non-smallcell lung, 48 hrs exposure
[38] = text b111, read-out: GI50 against sixty cell lines in nine cancer cell panels
[39] = K-562, Leukemia, 48 hrs exposure
[40] = HCT-116, Colon, 48 hrs exposure
[41] = HS 578T, Breast, 48 hrs exposure
[42] = SK-MEL-5, Melanoma, 48 hrs exposure
[43] = MDA-MB-435, Breast, 48 hrs exposure
[44] = NCI-H226, Non-smallcell lung, 48 hrs exposure
[45] = IGROV1, Ovarian, 48 hrs exposure
[46] = PC-3, Prostate, 48 hrs exposure

## COc1ccc(C2CC(c3ccc(OC)c(OC)c3OC)=NO2)cc1OCCCCOc1cc2c(cc1OC)C(=O)N1CCC[C@H]1C=N2 (stereo partly drawn) [Compound 9b, (11aS)-7-(methyloxy)-8-(4-[(2-(methyloxy)-5-3-[2,3,4-tri(methyloxy)phenyl]-4,5-dihydro-5-isoxazolylphenyl)oxy]butyloxy)-2,3,5,11a-tetrahydro-1H-benzo[e]pyrrolo[1,2-a][1,4]diazepin-5-one]
[1]
  Log10 LC50: −5.05 mol/L
  Log10GI50: −5.74 mol/L
[2]; [37]
  GI50: 610 nM
[3]
  GI50: 1340 nM
[4]
  Log10 GI50 mean graph midpoint (MG_MID): −5.73
  Log10 TGI mean graph midpoint (MG_MID): −5.28
[4]; [38]
  GI50: < 3540 nM
[5]
  GI50: 2070 nM
[6]
  GI50: 1740 nM
[7]
  GI50: 2090 nM
[8]
  GI50: 2330 nM
[9]; [39]
  GI50: 1260 nM
[10]; [40]
  GI50: 1700 nM
[11]; [41]
  GI50: 1100 nM
[12]
  GI50: 1580 nM
[13]
  GI50: 2550 nM
[14]; M14, Melanoma, 48 hrs exposure
  GI50: 1730 nM
[15]; [42]
  GI50: 1470 nM
[16]; [43]
  GI50: 3540 nM
[17]
  GI50: 1850 nM
[18]; [44]
  GI50: 1670 nM
[19]
  GI50: 1730 nM
[20]
  Log10 LC50: −4.77 mol/L
  Log10GI50: −5.62 mol/L
[21]
  GI50: 3130 nM
[22]; [45]
  GI50: 1570 nM
[23]
  Log10 LC50: −5.12 mol/L
  Log10GI50: −5.72 mol/L
[24]
  GI50: 3460 nM
[25]
  GI50: 1960 nM
[26]
  GI50: 3680 nM
[27]
  GI50: 1890 nM
[28]; SR, Leukemia, 48 hrs exposure
  GI50: 1120 nM
[29]
  GI50: 1850 nM
[30]
  GI50: 1390 nM
[31]
  Log10 LC50: −4.34 mol/L
  Log10GI50: −5.74 mol/L
[32]
  GI50: 2030 nM
[33]
  GI50: 1750 nM
[34]; [46]
  GI50: 580 nM
[35]
  GI50: 1570 nM
[36]
  GI50: 2330 nM

## COc1cc(C2=NOC(c3cc(OC)c(OC)c(OC)c3)C2)ccc1OCCCCOc1cc2c(cc1OC)C(=O)N1CCC[C@H]1C=N2 (stereo partly drawn) [Compound 5b, (11aS)-7-(methyloxy)-8-(4-[(2-(methyloxy)-4-5-[3,4,5-tri(methyloxy)phenyl]-4,5-dihydro-3-isoxazolylphenyl)oxy]butyloxy)-2,3,5,11a-tetrahydro-1H benzo[e]pyrrolo[1,2-a][1,4]diazepin-5-one]
[1]
  Log10 LC50: −5.18 mol/L
  Log10GI50: −6.51 mol/L
[2]; [37]
  GI50: 120 nM
[2]; non-small cell lung cancer NCI-H522
  GI50: 120 nM
[3]
  GI50: 220 nM
[4]; read-out: GI50 against sixty cell lines in nine cell panels
  GI50: < 470 nM
[4]; human cancer cell lines
  in vitro cytotoxicity (in words): significant cytotoxicity
[4]
  Log10 GI50 mean graph midpoint (MG_MID): −6.59
  Log10 TGI mean graph midpoint (MG_MID): −6.05
[4]; in vitro cytotoxicity, comparison of GI50
  activity of 5b compared with 9b: ten folds higher activity than 9b
[4]; [38]
  GI50: < 470 nM
[5]
  GI50: 200 nM
[6]
  GI50: 220 nM
[7]
  GI50: 290 nM
[8]
  GI50: 270 nM
[9]; [39]
  GI50: 120 nM
[9]; leukemia K-562
  GI50: 120 nM
[10]; [40]
  GI50: 180 nM
[10]; colon cancer HCT-116
  GI50: 180 nM
[11]; [41]
  GI50: 160 nM
[11]; breast HS 578T
  GI50: 160 nM
[12]
  GI50: 300 nM
[13]
  GI50: 370 nM
[14]; M14, Melanoma, 48 hrs exposure
  GI50: 180 nM
[14]; melanoma M14
  GI50: 180 nM
[15]; [42]
  GI50: 160 nM
[15]; melanoma SK-MEL-5
  GI50: 200 nM
[16]; [43]
  GI50: 170 nM
[16]; breast MDA-MB-435
  GI50: 170 nM
[17]
  GI50: 210 nM
[18]; [44]
  GI50: 170 nM
[18]; non-small cell lung cancer NCI-H226
  GI50: 310 nM
[19]
  GI50: 300 nM
[20]
  Log10 LC50: −4.94 mol/L
  Log10GI50: −6.58 mol/L
[21]
  GI50: 420 nM
[22]; [45]
  GI50: 240 nM
[22]; ovarian IGROV1
  GI50: 240 nM
[23]
  Log10 LC50: −5.82 mol/L
  Log10GI50: −6.68 mol/L
[24]
  GI50: 340 nM
[25]
  GI50: 210 nM
[26]
  GI50: 460 nM
[27]
  GI50: 340 nM
[28]; SR, Leukemia, 48 hrs exposure
  GI50: 140 nM
[28]; leukemia SR
  GI50: 140 nM
[29]
  GI50: 200 nM
[30]
  GI50: 210 nM
[31]
  Log10 LC50: −4.52 mol/L
  Log10GI50: −6.74 mol/L
[32]
  GI50: 230 nM
[33]
  GI50: 200 nM
[34]; [46]
  GI50: 320 nM
[34]; prostate PC-3
  GI50: 320 nM
[35]
  GI50: 280 nM
[36]
  GI50: 260 nM
